Data published in patent US9199983B2, “3-aryl-6-aryl-[1,2,4]triazolo[4,3-α]pyridines as inhibitors of cell proliferation and the use thereof” (priority 2010, dated 2015).
pIC50: −log10 of the molar value. Counter-ions that a name gives are not always drawn.

What was measured:
[1] = system: liver cancer cell line HepG2; assay: MTT cancer cell cytotoxicity assay, HepG2; assay type: cell-based, human; conditions: Homo sapiens, HepG2 cells, 48-72 h
Procedure: (§1) Identification of 3-(2-methoxyphenyl)-6-(4-methoxyphenyl)-[1,2,4]triazolo[4,3-a]pyridine and analogs as inhibitors of cell proliferation that were evaluated with standard MTT cancer cell cytotoxicity assay (IC50)
(§2) Human lung cancer cell line A549, breast cancer cell line T47D, liver cancer cell lines HepG2 and SMMC7721 as well as a mouse melanoma cell line B16F10 were used in the study. The cells were cultured in corresponding growth media recommended by American Type Culture Collection (ATCC) with the supplementation of penicillin G (100 U/ml)/streptomycin (100 µg/ml), and 10% fetal bovine serum (Hangzhou Sijiqing Biological Engineering Materials, Co., Ltd. China) at 37° C. in a humidified atmosphere containing 5% CO2. Cells at about 80% confluency were harvested by trypsinization. Cells were centrifuged, re-suspended in fresh growth media and counted. Corresponding numbers of cells were seeded to 96-well cell culture plates (HepG2 cell, T-47D and A549 cells at 3000 cells/well, SMMC-7721 cells at 5000 cells/well and B16F10 cells at 2000 cells/well) in a total volume of […]. Cells were incubated in CO2 incubator over night to allow the cells to attach. In next day, […] of medium containing testing (from 10 μM to 1 nM) or reference compounds was added to each well of the cells. Media without compound were used as 100% control. Cells were treated with each concentration of compounds in triplicates to ensure data accuracy. Cells were incubated with compounds in CO2 incubator for an additional 48-72 h at 37° C. After incubation, cells were removed from the CO2 incubator and […] of 5 mg/ml MTT (3-(4,5-dimethylthiazole-2-yl)-2,5-diphenyltetrazoliumbromide, Sigma) solution in PBS was added to each well. Cells were returned to CO2 incubator and incubated for additional 4 h. After the incubation, media were removed by aspiration and […] DMSO was added to each well. Plates were sealed with aluminum foil and shaked mildly on an orbital shaker for 10 min at room temperature. The absorption was measured at 550 nm with a plate reader (Varioskan Flash, Thermo Fisher Scientific) with 660 nm reading used as background control. The relative absorbance readings were calculated by subtracting readings at 660 nm from that at 550 nm. The relative absorbance was plotted again the concentrations of the testing compounds and the plots were fitted with a one-site lg(IC50) equation using Prism 5 software (GraphPad Software, Inc). The equation used in the curve fitting is as follows: relative absorbance reading=background reading+(maximal reading−brackground reading)/(1+10 ^(compound concentration-log IC50)). The background reading used in the calculation was obtained with 100% cell death using a reference anticancer drug, whereas the maximal reading was obtained in the well with no added compound. The IC50 value calculated from the equation represents the cytotoxic potency of a particular compound.

[2] = system: liver cancer cell line SMMC7721; assay: MTT cancer cell cytotoxicity assay, SMMC7721; assay type: cell-based, human; conditions: Homo sapiens, SMMC-7721, SMMC7721 cells, 48-72 h
Procedure: as §1, §2

[3] = system: breast cancer cell line T47D; assay: MTT cancer cell cytotoxicity assay, T47D; assay type: cell-based, human; conditions: Homo sapiens, T47D cells, 48-72 h
Procedure: as §1, §2

[4] = system: Human lung cancer cell line A549; assay: MTT cancer cell cytotoxicity assay, A549; assay type: cell-based; conditions: Homo sapiens, A549 cells, 48-72 h
Procedure: as §1, §2

Structure (SMILES)	pIC50 [1]	pIC50 [2]	pIC50 [3]	pIC50 [4]
COc1ccc(-c2ccc3nnc(-c4ccc(OC)cc4)n3c2)cc1 [Example 64, 3,6-Bis(4-methoxyphenyl)-[1,2,4]triazolo[4,3-a]pyridine]	6.25	6.82	6.47	6.19
COc1ccccc1-c1nnc2ccc(-c3ccc(O)cc3)cn12 [Example 13, 6-(4-Hydroxyphenyl)-3-(2-methoxyphenyl)-[1,2,4]triazolo[4,3-a]pyridine]	5.89	6.00	6.18	5.63
COc1ccccc1-c1nnc2ccc(-c3ccc(C)c(Cl)c3)cn12 [Example 19, 6-(3-Chloro-4-methylphenyl)-3-(2-methoxyphenyl)-[1,2,4]triazolo[4,3-a]pyridine]	6.80	7.17	6.77	6.66
COc1ccccc1-c1nnc2ccc(-c3ccc(OCc4ccccc4)c(C)c3)cn12 [Example 37, 6-(4-Benzyloxy-3-methylphenyl)-3-(2-methoxyphenyl)-[1,2,4]triazolo[4,3-a]pyridine]	5.45	5.48	5.03	5.15
COc1ccccc1-c1nnc2ccc(-c3ccc(C)c(F)c3)cn12 [Example 33, 6-(3-Fluoro-4-methylphenyl)-3-(2-methoxyphenyl)-[1,2,4]triazolo[4,3-a]pyridine]	6.11	6.79	6.09	6.20
COc1ccc(-c2ccc3nnc(-c4c(OC)ccc(Br)c4OC)n3c2)cc1 [Example 65, 3-(3-Bromo-2,6-dimethoxyphenyl)-6-(4-methoxyphenyl)-[1,2,4]triazolo[4,3-a]pyridine]	6.03	6.70	6.24	5.61
COc1ccc(-c2ccc3nnc(-c4cc(OC)ccc4OC)n3c2)cc1 [Example 62, 3-(2,5-Dimethoxyphenyl)-6-(4-methoxyphenyl)-[1,2,4]triazolo[4,3-a]pyridine]	7.11	7.38	6.81	6.85
COc1ccccc1-c1nnc2ccc(-c3ccc([N+](=O)[O-])c(OC)c3)cn12 [Example 21, 6-(3-Methoxy-4-nitrophenyl)-3-(2-methoxyphenyl)-[1,2,4]triazolo[4,3-a]pyridine]	5.37	< 5.00	< 5.00	< 5.00
CCOc1ccccc1-c1nnc2ccc(-c3ccc(OC)cc3)cn12 [Example 74, 3-(2-Ethoxyphenyl)-6-(4-methoxyphenyl)-[1,2,4]triazolo[4,3-a]pyridine]	6.85	7.42	6.82	6.84
CNc1ccccc1-c1nnc2ccc(-c3ccc(OC)cc3)cn12 [Example 79, 6-(4-Methoxyphenyl)-3-(2-methylaminophenyl)-[1,2,4]triazolo[4,3-a]pyridine]	6.91	7.16	7.14	6.78
COc1ccc(-c2ccc3nnc(-c4cc(C)ccc4OC)n3c2)cc1 [Example 76, 3-(2-Methoxy-5-methylphenyl)-6-(4-methoxyphenyl)-[1,2,4]triazolo[4,3-a]pyridine]	6.55	6.98	6.20	6.27
COc1ccccc1-c1nnc2ccc(-c3ccc(N)cc3)cn12 [Example 47, 6-(4-Aminophenyl)-3-(2-methoxyphenyl)-[1,2,4]triazolo[4,3-a]pyridine hydrochloride]	6.14	6.44	6.72	5.98
COc1ccccc1-c1nnc2ccc(-c3cccc(C)c3)cn12 [Example 23, 3-(2-Methoxyphenyl)-6-(3-methylphenyl)-[1,2,4]triazolo[4,3-a]pyridine]	6.74	7.12	6.87	6.67
COc1ccc(-c2ccc3nnc(-c4cccc(OC)c4OC)n3c2)cc1 [Example 73, 3-(2,3-Dimethoxyphenyl)-6-(4-methoxyphenyl)-[1,2,4]triazolo[4,3-a]pyridine]	5.63	5.49	5.27	< 5.00
COc1ccc(-c2ccc3nnc(-c4cccnc4OC)n3c2)cc1 [Example 86, 6-(4-Methoxyphenyl)-3-(2-methoxypyridin-3-yl)-[1,2,4]triazolo[4,3-a]pyridine]	7.24	7.49	7.40	7.39
COc1ccc(-c2ccc3nnc(-c4ccccc4N(C)C)n3c2)cc1 [Example 80, 3-(2-Dimethylaminophenyl)-6-(4-methoxyphenyl)-[1,2,4]triazolo[4,3-a]pyridine]	7.09	7.46	7.21	6.93
COc1ccc(-c2ccc3nnc(-c4cc(OC)c(OC)cc4OC)n3c2)cc1 [Example 69, 6-(4-Methoxyphenyl)-3-(2,4,5-trimethoxyphenyl)-[1,2,4]triazolo[4,3-a]pyridine]	6.04	6.51	6.08	6.08
COc1ccc(-c2ccc3nnc(-c4ccccc4C)n3c2)cc1 [Example 78, 6-(4-Methoxyphenyl)-3-(2-methylphenyl)-[1,2,4]triazolo[4,3-a]pyridine]	6.58	6.96	6.89	6.21
COc1ncc(-c2ccc3nnc(-c4ccccc4OC)n3c2)cn1 [Example 18, 3-(2-Methoxyphenyl)-6-(2-methoxypyrimidin-5-yl)-[1,2,4]triazolo[4,3-a]pyridine]	< 5.00	< 5.00	< 5.00	< 5.00
COc1ccc(-c2ccc3nnc(-c4ccccc4)n3c2)cc1 [Example 68, 6-(4-Methoxyphenyl)-3-phenyl-[1,2,4]triazolo[4,3-a]pyridine]	5.30	6.12	5.53	5.11
COc1ccccc1-c1nnc2ccc(-c3ccc4c(c3)OCO4)cn12 [Example 14, 6-(Benzo[d][1,3]dioxol-5-yl)-3-(2-methoxyphenyl)-[1,2,4]triazolo[4,3-a]pyridine]	6.10	6.96	5.84	5.90
COc1ccccc1-c1nnc2ccc(-c3ccc(C)c(C)c3)cn12 [Example 32, 6-(3,4-Dimethylphenyl)-3-(2-methoxyphenyl)-[1,2,4]triazolo[4,3-a]pyridine]	7.08	7.41	6.83	6.80
COc1cc(-c2ccc3nnc(-c4ccccc4OC)n3c2)ccc1OCc1ccccc1 [Example 9, 6-(4-Benzyloxy-3-methoxyphenyl)-3-(2-methoxyphenyl)-[1,2,4]triazolo[4,3-a]pyridine]	< 5.00	< 5.00	< 5.00	< 5.00
COc1ccc(-c2ccc3nnc(-c4ccccc4OC)n3c2)cn1 [Example 15, 3-(2-Methoxyphenyl)-6-(6-methoxypyridin-3-yl)-[1,2,4]triazolo[4,3-a]pyridine]	5.76	5.96	5.70	5.99
COc1cc(-c2ccc3nnc(-c4ccccc4OC)n3c2)ccc1C [Example 28, 6-(3-Methoxy-4-methylphenyl)-3-(2-methoxyphenyl)-[1,2,4]triazolo[4,3-a]pyridine]	6.35	6.75	6.31	6.05
COc1cc(-c2ccc3nnc(-c4ccccc4OC)n3c2)ccc1N [Example 43, 6-(4-Amino-3-methoxyphenyl)-3-(2-methoxyphenyl)-[1,2,4]triazolo[4,3-a]pyridine]	5.79	5.66	5.65	< 5.00
COc1ccc(-c2ccc3nnc(-c4cccnc4Cl)n3c2)cc1 [Example 85, 3-(2-Chloropyridin-3-yl)-6-(4-methoxyphenyl)-[1,2,4]triazolo[4,3-a]pyridine]	5.41	5.72	5.36	< 5.00
